Consider 49 compounds from patent US10766865B2, “PKM2 modulators and methods for their use” (TOLERO PHARMACEUTICALS, INC., priority 2012, dated 2020).

This experiment addresses PKM2 (Homo sapiens, UniProt P14618). Put plainly: PKM2 Biochemical Assay. The following applies: for Max. Resp.: % maximum response in a biochemical assay as compared with Fructose 1,6-bisphosphate.

Read-outs that look alike come from different tables or passages of the source.

PKM2, sequence (P14618 whole entry): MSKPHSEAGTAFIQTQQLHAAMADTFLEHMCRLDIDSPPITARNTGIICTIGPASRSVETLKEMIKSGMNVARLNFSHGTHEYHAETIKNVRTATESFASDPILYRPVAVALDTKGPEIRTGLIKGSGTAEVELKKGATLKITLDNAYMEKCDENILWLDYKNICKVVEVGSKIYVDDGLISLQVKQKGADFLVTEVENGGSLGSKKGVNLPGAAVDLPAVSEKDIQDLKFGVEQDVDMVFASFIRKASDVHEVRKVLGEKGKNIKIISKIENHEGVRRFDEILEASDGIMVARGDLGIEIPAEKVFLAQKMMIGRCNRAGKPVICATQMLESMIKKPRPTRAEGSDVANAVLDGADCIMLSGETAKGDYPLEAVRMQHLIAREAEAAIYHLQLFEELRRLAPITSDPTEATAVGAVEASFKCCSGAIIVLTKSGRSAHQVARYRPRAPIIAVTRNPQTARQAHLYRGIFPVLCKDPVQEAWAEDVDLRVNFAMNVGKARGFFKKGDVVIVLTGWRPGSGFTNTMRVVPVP

As to `O=C(c1cc(C(F)(F)F)n[nH]1)N(CCC1CC[S+]([O-])CC1)Cc1ccccc1Cl` (centres unmarked) [Example 74, N-(2-CHLOROBENZYL)-N-(2-(1-OXIDOTETRAHYDRO-2H-THIOPYRAN-4-YL)ETHYL)-3-(TRIFLUOROMETHYL)-1H-PYRAZOLE-5-CARBOXAMIDE], the “Max. Resp.” value is reported as 95%.
Turning to `O=C(c1cc(C(F)(F)F)n[nH]1)N(CCC1CCS(=O)(=O)C1)Cc1ccc(O)cc1F` (centres unmarked) [Example 76], the “Max. Resp.” value stood at 93%.
For `Nc1ccccc1CN(CCC1CCS(=O)(=O)C1)C(=O)c1cc(C(F)(F)F)n[nH]1` (centres unmarked) [Example 77], the “Max. Resp.” value was 43%.
`O=C(c1cc(C(F)(F)F)n[nH]1)N(CCC1CCSCC1)Cc1ccccc1F` [Example 79]: the “Max. Resp.” value stood at 95%.
In the case of `O=C(c1cc(Cl)n[nH]1)N(CCC1CCSCC1)Cc1ccccc1F` [Example 80], the “Max. Resp.” value was found to be 46%.
Still for that read-out and setting: with `O=C(c1cc(Cl)n[nH]1)N(CCC1CCS(=O)(=O)CC1)Cc1ccccc1F` [Example 81] the figure was 72%; with `O=C(c1cc(Br)n[nH]1)N(CCC1CCSCC1)Cc1ccccc1F` [Example 82], 74%.
Take `O=C(c1cc(Br)n[nH]1)N(CCC1CCS(=O)(=O)CC1)Cc1ccccc1F` [Example 83]: the “Max. Resp.” value was 98%.
Regarding `O=C(c1cc(C(F)(F)F)n[nH]1)N(CCC1CCSCC1)Cc1c(F)cccc1F` [Example 84], the “Max. Resp.” value worked out at 73%.
Still for that read-out and setting: with `O=C(c1cc(C(F)(F)F)n[nH]1)N(CCC1CCS(=O)(=O)CC1)Cc1c(F)cccc1F` [Example 85] the figure was 100%; with `O=C(c1cc(C(F)(F)F)n[nH]1)N(CCC1CCSCC1)Cc1ccc(O)cc1F` [Example 86], 98%; with `O=C(c1cc(C(F)(F)F)n[nH]1)N(CCC1CCS(=O)(=O)CC1)Cc1ccc(O)cc1F` [Example 87], 100%.
For `O=C(c1cc(C(F)(F)F)n[nH]1)N(CCC1CCS(=O)(=O)C1)Cc1ccccn1` (centres unmarked) [Example 88], the “Max. Resp.” value was found to be 96%.
Same read-out and setting: with `O=C(c1cc(C(F)(F)F)n[nH]1)N(CCC1CCS(=O)(=O)C1)Cc1ccncc1` (centres unmarked) [Example 89] the figure was 35%; with `O=C(c1cc(C(F)(F)F)n[nH]1)N(CCC1CCS(=O)(=O)C1)Cc1cccnc1` (centres unmarked) [Example 90], 24%.
The same measure, in the same setting: with `O=C(c1cc(C(F)(F)F)n[nH]1)N(CCC1CCS(=O)(=O)C1)Cc1ncccc1Cl` (centres unmarked) [Example 92] the figure was 74%; with `O=C(c1cc(C(F)(F)F)n[nH]1)N(CCC1CCS(=O)(=O)C1)Cc1cncs1` (centres unmarked) [Example 93], 26%.
Turning to `O=C(c1cc(C(F)(F)F)n[nH]1)N(CCC1CCS(=O)(=O)C1)Cc1cccc([N+](=O)[O-])c1Cl` (centres unmarked) [Example 94, N-(2-chloro-3-nitrobenzyl)-N-(2-(1,1-dioxidotetrahydrothiophen-3-yl)ethyl)-3-(trifluoromethyl)-1H-pyrazole-5-carboxamide], the “Max. Resp.” value is on record as 69%.
The same measure, in the same setting: with `O=C(c1cc(C(F)(F)F)n[nH]1)N(CCC1CCNCC1)Cc1ccccc1F` [Example 98] the figure was 56%.
Take `CS(=O)(=O)N1CCC(CCN(Cc2ccccc2F)C(=O)c2cc(C(F)(F)F)n[nH]2)CC1` [Example 99]: the “Max. Resp.” value is reported as 100%.
On the same count and under the same terms, with `CN1CCC(CN(Cc2ccccc2F)C(=O)c2cc(C(F)(F)F)n[nH]2)CC1` [Example 100] the figure was 29%; with `CN1CCN(CCN(Cc2ccccc2F)C(=O)c2cc(C(F)(F)F)n[nH]2)CC1` [Example 103], 42%; with `CN1CCN(CCN(Cc2ccccc2Cl)C(=O)c2cc(C(F)(F)F)n[nH]2)CC1` [Example 104], 63%.
For the compound `CCN1CCC(CCN(Cc2c(Cl)cccc2Cl)C(=O)c2cc(C(F)(F)F)n[nH]2)CC1` [Example 105], the “Max. Resp.” value is reported as 71%.
In the case of `CCN1CCN(CCN(Cc2ccccc2F)C(=O)c2cc(C(F)(F)F)n[nH]2)CC1` [Example 106], the “Max. Resp.” value came to 115%.
Still for that read-out and setting: with `O=C(c1cc(C(F)(F)F)n[nH]1)N(CCN1CCS(=O)(=O)CC1)Cc1ccccc1Cl` [Example 107] the figure was 85%; with `O=C(c1cc(C(F)(F)F)n[nH]1)N(CCN1CCS(=O)(=O)CC1)Cc1ccccc1F` [Example 108], 92%.
Take `O=C(c1cc(C(F)(F)F)n[nH]1)N(CCN1CCS(=O)(=O)CC1)Cc1c(F)cccc1F` [Example 109]: the “Max. Resp.” value came out at 94%.
For the compound `O=C(c1cc(C(F)(F)F)n[nH]1)N(CCN1CCS(=O)(=O)CC1)Cc1c(Cl)cccc1Cl` [Example 110], the “Max. Resp.” value worked out at 84%.
The same measure, in the same setting: with `O=C(c1cc(C(F)(F)F)n[nH]1)N(CCN1CCS(=O)(=O)CC1)Cc1cccc(F)c1F` [Example 111] the figure was 64%; with `Nc1cccc(CN(CCN2CCS(=O)(=O)CC2)C(=O)c2cc(C(F)(F)F)n[nH]2)c1` [Example 112], 91%; with `CC[C@](C)(N)C(=O)Oc1ccc(CN(CC2CCC2)C(=O)c2cc(Cl)n[nH]2)c(F)c1` [Example 115, (S)-4-((3-chloro-N-(cyclobutylmethyl)-1H-pyrazole-5-carboxamido)methyl)-3-fluorophenyl 2-amino-2-methylbutanoate], 104%.
On the same count and under the same terms, with `CN(C)Cc1c[nH]c2cccc(CN(CC3CCC3)C(=O)c3cc(Cl)n[nH]3)c12` [Example 118, 3-CHLORO-N-(CYCLOBUTYLMETHYL)-N-((3-((DIMETHYLAMINO)METHYL)-1H-INDOL-4-YL)METHYL)-1H-PYRAZOLE-5-CARBOXAMIDE] the figure was 100%; with `O=C(c1cc(Cl)n[nH]1)N(Cc1cccc2[nH]cnc12)CC1CCC1` [Example 119, N-((1H-benzo[d]imidazol-4-yl)methyl)-3-chloro-N-(cyclobutylmethyl)-1H-pyrazole-5-carboxamide], 100%.
A word on the AC50: it is the concentration giving half of the maximal activity seen. Turning to `O=C(c1cc(Br)n[nH]1)N(Cc1cccc2[nH]cnc12)CC1CCC1` [Example 120, N-((1H-benzo[d]imidazol-4-yl)methyl)-3-bromo-N-(cyclobutylmethyl)-1H-pyrazole-5-carboxamide], the “Max. Resp.” value was 100%. Also, the half-maximal activity concentration (AC50) (read-out: PKM2 AC50, 2 nM PKM2, 75 μM ADP, 15 μM PEP, Kinase Glo) was determined as 1.33 µM.
Regarding `O=C(c1cc(C(F)(F)F)n[nH]1)N(Cc1cccc2[nH]cnc12)CC1CCC1` [Example 123, N-((1H-benzo[d]imidazol-4-yl)methyl)-N-(cyclobutylmethyl)-3-(trifluoromethyl)-1H-pyrazole-5-carboxamide], the “Max. Resp.” value worked out at 100%.
Take `O=C(c1cc(C(F)(F)F)n[nH]1)N(Cc1ccc(O)cc1Cl)CC1CCC1` [Example 124, N-(2-chloro-4-hydroxybenzyl)-N-(cyclobutylmethyl)-3-(trifluoromethyl)-1H-pyrazole-5-carboxamide]: the “Max. Resp.” value came out at 100%.
Take `O=C(c1cc(Br)n[nH]1)N(Cc1ccc(O)cc1Cl)CC1CCC1` [Example 125, N-(2-chloro-4-hydroxybenzyl)-3-bromo-N-(cyclobutylmethyl)-1H-pyrazole-5-carboxamide]: the “Max. Resp.” value is on record as 100%.
Consider `O=C(c1cc(C(F)(F)F)n[nH]1)N(Cc1ccccc1Cl)CC1CCC1` [Example 127, N-(2-chlorobenzyl)-N-(cyclobutylmethyl)-3-(trifluoromethyl)-1H-pyrazole-5-carboxamide], for which the “Max. Resp.” value is 100%.
Still for that read-out and setting: with `O=C(c1cc(C(F)(F)F)n[nH]1)N(Cc1ccncc1Cl)CC1CCC1` [Example 128, N-((3-chloropyridin-4-yl)methyl)-N-(cyclobutylmethyl)-3-(trifluoromethyl)-1H-pyrazole-5-carboxamide] the figure was 75%.
`O=C(c1cc(C(F)(F)F)n[nH]1)N(CCC(F)(F)F)Cc1ccc(O)cc1F` [Example 130, N-(2-fluoro-4-hydroxybenzyl)-3-(trifluoromethyl)-N-(3,3, trifluoropropyl)-1H-pyrazole-5-carboxamide]: the “Max. Resp.” value stood at 100%.
Consider `CC(C)(O)CCN(Cc1ccc(O)cc1F)C(=O)c1cc(C(F)(F)F)n[nH]1` [Example 131, N-(2-fluoro-4-hydroxybenzyl)-3-(trifluoromethyl)-N-(3-hydroxy-3-methylbutyl)-1H-pyrazole-5-carboxamide], for which half-maximal activity (AC50) was put at 23 µM.
`O=C(c1cc(C(F)(F)F)n[nH]1)N(Cc1ccc(O)cc1F)C1CCCC1` [Example 132, N-(2-fluoro-4-hydroxybenzyl)-N-cyclopentyl-3-(trifluoromethyl)-1H-pyrazole-5-carboxamide]: the “Max. Resp.” value is given as 100%.
Regarding `NCCN(Cc1ccc(O)cc1F)C(=O)c1cc(C(F)(F)F)n[nH]1` [Example 133, N-(2-fluoro-4-hydroxybenzyl)-N-(2-aminoethyl)-3-(trifluoromethyl)-1H-pyrazole-5-carboxamide], the “Max. Resp.” value was 100%.
On the same count and under the same terms, with `Nc1ccc(CN(CC2CCC2)C(=O)c2cc(C(F)(F)F)n[nH]2)c(Cl)c1` [Example 134, N-(4-amino-2-chlorobenzyl)-N-(cyclobutylmethyl)-3-(trifluoromethyl)-1H-pyrazole-5-carboxamide] the figure was 100%; with `O=C(c1cc(C(F)(F)F)n[nH]1)N(Cc1cccc2[nH]ccc12)NC1CCC1` [Example 135, N-((1H-INDOL-4-YL)METHYL)-N′-CYCLOBUTYL-3-(TRIFLUOROMETHYL)-1H-PYRAZOLE-5-CARBOHYDRAZIDE], 100%.
For `O=C(c1cc(C(F)(F)F)n[nH]1)N(Cc1cccc(F)c1O)CC1CCC1` [Example 136, N-(3-fluoro-2-hydroxybenzyl)-N-(cyclobutylmethyl)-3-(trifluoromethyl)-1H-pyrazole-5-carboxamide], the “Max. Resp.” value was 100%.
For the compound `O=C(c1cc(C(F)(F)F)n[nH]1)N(CCO)Cc1ccc(O)cc1F` [Example 137, N-(2-fluoro-4-hydroxybenzyl)-3-(trifluoromethyl)-N-(2-hydroxyethyl)-1H-pyrazole-5-carboxamide], the “Max. Resp.” value came to 70%.
Regarding `O=C(c1cc(C(F)(F)F)n[nH]1)N(Cc1ccc(O)cc1F)C1CCCCC1` [Example 139, N-(2-fluoro-4-hydroxybenzyl)-N-cyclohexyl-3-(trifluoromethyl)-1H-pyrazole-5-carboxamide], the “Max. Resp.” value is 100%.
